Like-named read-outs stand apart in the source and are kept apart here.
How the values were obtained:
[1] = tested on: Plutella xylostella (Diamond-back Moth); assay: whole plant or invertebrate; type: in vivo; details: foliar; for mortality at 500 ppm: read-out: mortality of larvae of Plutella xylostella; for pest or weed control at 500 ppm: read-out: Plutella % m 500 ppm
Source text: (§1) One or more dilutions of the compounds to be tested were made in 50% aqueous acetone.
(§2) a) Test species: Plutella xylostella (Diamond-back Moth) and Phaedon cochleariae (Mustard Beetle)
(§3) Turnip leaf discs were set in agar in petri-dishes and infected with 10 larvae (2nd instar Plutella or 3rd instar Phaedon). Four replicate dishes were assigned to each treatment and were sprayed under a Potter Tower with the appropriate test dilution. Four or five days after treatment the dishes were removed from the constant temperature (25° C.) room in which they had been held and the mean percentage mortalities of larvae were determined.

[2] = tested on: Phaedon cochleariae (Mustard Beetle); assay: Test 3 a): leaf disc spray test, Phaedon cochleariae larvae; type: in vivo; details: for pest or weed control at 10 ppm / mortality at 5 ppm: Phaedon cochleariae, foliar; for pest or weed control at 10 ppm: read-out: Phaedon % m 10 ppm; for mortality at 5 ppm: read-out: mortality of larvae of Phaedon cochleariae
Source text: as §1, §2, §3

[3] = Test 3 method (a), application of 500 ppm

Structure (SMILES) | mortality at 500 ppm [1] [%] | pest or weed control at 10 ppm [2] [%] | other results
N#Cc1c(I)nn(-c2c(Cl)cc(C(F)(F)F)cc2Cl)c1N [Compound 116, 5-Amino-3-iodo-4-cyano-1-(2,6-dichloro-4-trifluoromethylphenyl)pyrazole] | 100 | 93 | –
CS(=O)(=O)c1c(C(F)(F)F)nn(-c2c(Cl)cc(C(F)(F)F)cc2Cl)c1N [Compound 130, 5-Amino-1-(2,6-dichloro-4-trifluoromethylphenyl)-4-methanesulphonyl-3-trifluoromethylpyrazole] | 100 | 100 | –
NC(=O)c1c(C(F)(F)F)nn(-c2c(Cl)cc(C(F)(F)F)cc2Cl)c1N [Compound 131, 5-Amino-4-carbamoyl-1-(2,6-dichloro-4-trifluoromethylphenyl)-3-trifluoromethylpyrazole] | – | 100 | pest or weed control at 500 ppm [1]: 58%
COC(=O)c1c(C(F)(F)F)nn(-c2c(Cl)cc(C(F)(F)F)cc2Cl)c1N [Compound 132, 5-Amino-1-(2,6-dichloro-4-trifluoromethylphenyl)-4-methoxycarbonyl-3-trifluoromethylpyrazole] | – | 100 | pest or weed control at 500 ppm [1]: 10%
CN(C)c1c(C#N)c(C(F)(F)F)nn1-c1c(Cl)cc(C(F)(F)F)cc1Cl [Compound 136, 4-Cyano-1-(2,6-dichloro-4-trifluoromethylphenyl)-5-dimethylamino-3-trifluoromethylpyrazole] | 100 | 56 | –
CCOC(=O)CNc1c(C#N)c(C(F)(F)F)nn1-c1c(Cl)cc(C(F)(F)F)cc1Cl [Compound 137, 4-Cyano-1-(2,6-dichloro-4-trifluoromethylphenyl)-5-ethoxycarbonylmethylamino-3-trifluoromethylpyrazole] | – | 100 | pest or weed control at 500 ppm [1]: 48%
CNc1c(C#N)c(C(F)(F)F)nn1-c1c(Cl)cc(C(F)(F)F)cc1Cl [Compound 138, 4-Cyano-5-methylamino-1-(2,6-dichloro-4-trifluoromethylphenyl)-3-trifluoromethylpyrazole] | 100 | 100 | –
CC(C)(C)C(=O)Nc1c(C#N)c(C(F)(F)F)nn1-c1c(Cl)cc(C(F)(F)F)cc1Cl [Compound 139, 4-Cyano-1-(2,6-dichloro-4-trifluoromethylphenyl)-5-(2,2-dimethylpropionamido)-3-trifluoromethylpyrazole] | 100 | 16 | –
Nc1c(Br)c(C(F)(F)F)nn1-c1c(Cl)cc(C(F)(F)F)cc1Cl [Compound 140, 5-Amino-4-bromo-1-(2,6-dichloro-4-trifluoromethylphenyl)-3-trifluoromethylpyrazole] | 100 | 84 | –
N#Cc1c(C(F)(F)F)nn(-c2c(Cl)cc(C(F)(F)F)cc2Cl)c1Br [Compound 141, 5-Bromo-4-cyano-1-(2,6-dichloro-4-trifluoromethylphenyl)-3-trifluoromethylpyrazole] | – | 100 | pest or weed control at 500 ppm [1]: 44%
Nc1c([N+](=O)[O-])c(C(F)(F)F)nn1-c1c(Cl)cc(C(F)(F)F)cc1Cl [Compound 143, 5-Amino-1-(2,6-dichloro-4-trifluoromethylphenyl)-4-nitro-3-trifluoromethylpyrazole] | 100 | 100 | –
CCOC(=O)N(C(=O)OCC)c1c(C#N)c(C(F)(F)F)nn1-c1c(Cl)cc(C(F)(F)F)cc1Cl [Compound 145, 4-Cyano-1-(2,6-dichloro-4-trifluoromethylphenyl)-5-bis(ethoxycarbonyl)amino-3-trifluoromethylpyrazole] | – | 100 | mortality at 500 ppm [1, 3]: 100%
N#Cc1c(C(F)(F)F)nn(-c2c(Cl)cc(C(F)(F)F)cc2Cl)c1N(C(=O)C1CC1)C(=O)C1CC1 [Compound 146, 4-Cyano-1-(2,6-dichloro-4-trifluoromethylphenyl)-5-bis(cyclopropanecarbonyl)amino-3-trifluoromethylpyrazole] | 100 | 85 | –
N#Cc1c(C(F)(F)F)nn(-c2c(Cl)cc(C(F)(F)F)cc2Cl)c1NC(=O)C1CC1 [Compound 147, 4-Cyano-1-(2,6-dichloro-4-trifluoromethylphenyl)-5-cyclopropanecarbonamido-3-trifluoromethylpyrazole] | – | – | Phaedon % m 10 ppm ([2]; Tables 1-3, % mortality at 10 ppm): 100%
Nc1c(Cl)c(C(F)(F)F)nn1-c1c(Cl)cc(C(F)(F)F)cc1Cl [Compound 148, 5-Amino-4-chloro-1-(2,6-dichloro-4-trifluoromethylphenyl)-3-trifluoromethylpyrazole] | – | 21 | pest or weed control at 500 ppm [1]: 98%
CCOC(=O)Nc1c(C#N)c(C(F)(F)F)nn1-c1c(Cl)cc(C(F)(F)F)cc1Cl [Compound 149, 4-Cyano-1-(2,6-dichloro-4-trifluoromethylphenyl)-5-ethoxycarbonylamino-3-trifluoromethylpyrazole] | – | 100 | mortality at 500 ppm [1, 3]: 100%

Structure (SMILES) | mortality at 500 ppm [1] [%] | pest or weed control at 10 ppm [2] [%] | other results
CC(=O)N(C(=O)C(C)(C)C)c1c(C#N)c(C(F)(F)F)nn1-c1c(Cl)cc(C(F)(F)F)cc1Cl [Compound 176, 4-Cyano-1-(2,6-dichloro-4-trifluoromethylphenyl)-5-(N-acetyl-N-trimethylacetylamino)-3-trifluoromethylpyrazole] | 100 | – | –
CCC(=O)N(C(=O)C(C)(C)C)c1c(C#N)c(C(F)(F)F)nn1-c1c(Cl)cc(C(F)(F)F)cc1Cl [Compound 177, 4-Cyano-1-(2,6-dichloro-4-trifluoromethylphenyl)-5-(N-propionyl-N-trimethylacetylamino)-3-trifluoromethylpyrazole] | 100 | – | –
CC(C)(C)C(=O)Nc1c(C#N)c(Cl)nn1-c1c(Cl)cc(C(F)(F)F)cc1Cl [Compound 180, 3-Chloro-1-(2,6-dichloro-4-trifluoromethylphenyl)-4-cyano-5-trimethylacetylaminopyrazole] | 100 | – | –
CCOC(=O)N(C(=O)OCC)c1c(C#N)c(Cl)nn1-c1c(Cl)cc(C(F)(F)F)cc1Cl [Compound 181, 3-Chloro-1-(2,6-dichloro-4-trifluoromethylphenyl)-4-cyano-5-bis(ethoxycarbonyl)aminopyrazole] | 100 | – | –
CCOC(=O)Nc1c(C#N)c(Cl)nn1-c1c(Cl)cc(C(F)(F)F)cc1Cl [Compound 182, 3-Chloro-1-(2,6-dichloro-4-trifluoromethylphenyl)-4-cyano-5-ethoxycarbonylaminopyrazole] | – | – | mortality at 5 ppm [2]: 100%
CCOC(=O)N(C(C)=O)c1c(C#N)c(C(F)(F)F)nn1-c1c(Cl)cc(C(F)(F)F)cc1Cl [Compound 184, 5-(N-Acetyl-N-ethoxycarbonylamino)-4-cyano-1-(2,6-dichloro-4-trifluoromethylphenyl)-3-trifluoromethylpyrazole] | 100 | – | –
Nc1c(I)c(C(F)(F)F)nn1-c1c(Cl)cc(C(F)(F)F)cc1Cl [Compound 189, 5-Amino-1-(2,6-dichloro-4-trifluoromethylphenyl)-4-iodo-3-trifluoromethylpyrazole] | 100 | – | –
N#Cc1cn(-c2c(Cl)cc(C(F)(F)F)cc2Cl)nc1F [Compound 195, 4-Cyano-1-(2,6-dichloro-4-trifluoromethylphenyl)-3-fluoropyrazole] | 100 | – | –
CCNS(=O)(=O)c1c(C(F)(F)F)nn(-c2c(Cl)cc(C(F)(F)F)cc2Cl)c1N [Compound 198, 5-Amino-1-(2,6-dichloro-4-trifluoromethylphenyl)-4-(N-ethylsulphamoyl)-3-trifluoromethylpyrazole] | – | – | mortality at 5 ppm [2]: 100%
CNS(=O)(=O)c1c(C(F)(F)F)nn(-c2c(Cl)cc(C(F)(F)F)cc2Cl)c1N [Compound 199, 5-Amino-1-(2,6-dichloro-4-trifluoromethylphenyl)-4-(N-methylsulphamoyl)-3-trifluoromethylpyrazole] | – | – | mortality at 5 ppm [2]: 100%
N#Cc1c(F)nn(-c2c(Cl)cc(C(F)(F)F)cc2Cl)c1N [Compound 202, 5-Amino-1-(2,6-dichloro-4-trifluoromethylphenyl)-4-cyano-3-fluoropyrazole] | 100 | – | –
C[Si](C)(C)c1c(C#N)c(C(F)(F)F)nn1-c1c(Cl)cc(C(F)(F)F)cc1Cl [Compound 205, 4-Cyano-1-(2,6-dichloro-4-trifluoromethylphenyl)-3-trifluoromethyl-5-trimethylsilylpyrazole] | – | – | mortality at 5 ppm [2]: 100%
C[Si](C)(C)Cc1c(C#N)c(C(F)(F)F)nn1-c1c(Cl)cc(C(F)(F)F)cc1Cl [Compound 211, 4-Cyano-1-(2,6-dichloro-4-trifluoromethylphenyl)-3-trifluoromethyl-5-trimethylsilylmethylpyrazole] | 100 | – | –
N#Cc1c(C(F)(F)F)nn(-c2c(Cl)cc(C(F)(F)F)cc2Cl)c1C#N [Compound 213, 1-(2,6-Dichloro-4-trifluoromethylphenyl)-4,5-dicyano-3-trifluoromethylpyrazole] | 100 | – | –
C[S+]([O-])c1c(C#N)c(C(F)(F)F)nn1-c1c(Cl)cc(C(F)(F)F)cc1Cl (centres unmarked) [Compound 220, 4-Cyano-1-(2,6-dichloro-4-trifluoromethylphenyl)-5-methylsulphinyl-3-trifluoromethylpyrazole] | – | – | mortality at 5 ppm [2]: 100%
CCS(=O)(=O)c1c(C(F)(F)F)nn(-c2c(Cl)cc(C(F)(F)F)cc2Cl)c1N [Compound 221, 5-Amino-1-(2,6-dichloro-4-trifluoromethylphenyl)-4-ethylsulphonyl-3-trifluoromethylpyrazole] | – | – | mortality at 5 ppm [2]: 100%
